pEC50: −log10 of the molar value. Like-named read-outs stand apart in the source and are kept apart here. Bounds are passed on as bounds.

The pEC50 is −log10 of the EC50, conventionally taken in molar units. A low value points to a large EC50. By CC50 is commonly meant the concentration at which the toxic effect on the cells reaches its halfway point. As a reminder, the EC50 is the concentration at which the effect is half-maximal.

Data set [1] is described as follows: Cytotoxicity in VERO cells. The format is cell-based. Particulars: reference marked * (µM). The text has this: (§1) Cytotoxicity assays were run in parallel with antiviral assays.
Data set [2] can be described thus: Cytotoxicity in MT-4 cells (MTT). Format: cell-based. The following applies: human.
From the text: (§2) Cell lines were purchased from American Type Culture Collection (ATCC). The absence of mycoplasma contamination was checked periodically by the Hoechst staining method. Cell lines supporting the multiplication of RNA viruses were the following: CD4+ human T-cells containing an integrated HTLV-1 genome (MT-4); Madin Darby Bovine Kidney (MDBK) [ATCC CCL 22 (NBL-1) Bos Taurus]; Baby Hamster Kidney (BHK-21) [ATCC CCL 10 (C-13) Mesocricetus auratus], Vero cells (CCL-81; American Type Culture Collection, Manassas, VA, USA)
as §1
Exponentially growing MT-4 cells were seeded at an initial density of 1 × 10^5 cells/ml in 96-well plates in RPMI-1640 medium, supplemented with 10% fetal bovine serum (FBS), 100 units/mL penicillin G and 100 µg/mL streptomycin. Cell cultures were then incubated at 37° C. in a humidified, 5% CO2 atmosphere, in the absence or presence of serial dilutions of test compounds. Cell viability was determined after 96 hrs at 37° C. by the 3-(4,5-dimethylthiazol-2-yl)-2,5-diphenyl-tetrazolium bromide (MTT) method (Pauwels et al. 1988).

The subject of another data set is BVDV. The format is cell-based, bovine viral diarrhoea virus (BVDV) strain NADL. Particulars: reference marked * (µM); 50% protection of MDBK cells; read-out: In vitro efficacy EC50 BVDV.
The test system of a further data set is MDBK cells. Nature of the data set: Cytotoxicity in MDBK cells (MTT). The format is cell-based, Bos Taurus. Particulars: reference marked * (µM).
From the text: as §2, §1
MDBK cells were seeded in 96-well plates at an initial density of 6 × 10^5 and 1 × 10^6 cells/mL, respectively, in Minimum Essential Medium with Earle’s salts (MEM-E), L-glutamine, 1 mM sodium pyruvate and 25 mg/L kanamycin, supplemented with 10% horse serum (MDBK). Cell cultures were then incubated at 37° C. in a humidified, 5% CO2 atmosphere in the absence or presence of serial dilutions of test compounds. Cell viability was determined after 72 hrs at 37° C. by the MTT method. […] Vero cells (1 × 10^6) were plated in 6-well multiwells and incubated the next day with the substance at the same concentrations used in the antiviral assays. […]

Turning to `CC[C@H](C)[C@H](NC(=O)[C@H](C)NC(=O)[C@H](CCC(=O)O)NC(=O)[C@H](CCC(=O)O)NC(=O)[C@H](CC(C)C)NC(=O)[C@H](CCCCN)NC(=O)[C@H](CCCCN)NC(=O)[C@H](CCSC)NC(=O)[C@H](CCC(=O)O)NC(=O)[C@H](Cc1ccc(O)cc1)NC(=O)[C@H](CCC(=O)O)NC(=O)[C@H](CC(C)C)NC(=O)[C@H](CC(=O)O)NC(=O)[C@H](CC(C)C)NC(=O)[C@H](Cc1ccccc1)NC(=O)[C@@H](NC(=O)[C@@H](NC(=O)[C@H](CC(N)=O)NC(=O)[C@@H](NC(=O)[C@H](CCC(N)=O)NC(=O)[C@H](CC(=O)O)NC(=O)[C@H](CC(C)C)NC(=O)[C@@H](N)CO)[C@@H](C)CC)C(C)C)[C@@H](C)O)C(=O)N[C@@H](CCCCN)C(=O)N[C@@H](CCCCN)C(=O)N[C@@H](CC(C)C)C(=O)N[C@@H](CCC(=O)O)C(=O)N[C@@H](CCC(=O)O)C(=O)N[C@@H](CO)C(=O)N[C@@H](Cc1ccc(O)cc1)C(=O)N[C@H](C(=O)N[C@@H](CC(=O)O)C(=O)N[C@@H](CC(C)C)C(=O)N[C@@H](CCCCN)C(=O)N[C@@H](CCC(=O)O)C(=O)N[C@@H](CC(C)C)C(=O)O)[C@@H](C)CC` [EK1], the pEC50 in the data set on SARS-CoV-2 was 5.27. In addition, in data set [1], the CC50 is greater than 100 µM. As to `O=C1Nc2ccc(Cl)cc2[C@@](C#CC2CC2)(C(F)(F)F)O1` [EFV, Efavirenz], the CC50 at 96 h in data set [2] is 40 µM. On to Enfuvirtide, for which the “In vitro efficacy EC50 HIV-1” value with HIV-1 turned out to be 0.017 µg/mL.

Consider `C[C@@]1(O)[C@H](O)[C@@H](CO)O[C@H]1n1cnc2c(=O)[nH]c(N)nc21` [NM 108], for which the EC50 in the data set with BVDV amounted to 1.6 µM. Also, the CC50 with MDBK cells is greater than 100 µM. On to enfuvirtide, for which, in data set [2] (mock-infected MT-4 cells, viability reduced by 50%, MTT method, read-out: Cytotoxicity in MT-4 cells CC50), the CC50 at 96 h was greater than 100 µg/mL.

The values are drawn from patent US20230233640A1, “ANTIVIRAL PREPARATION FROM CHESTNUT SHELLS OF CASTANEA SATIVA MILL” (Micronature S.R.L., priority 2019, published 2023).
